Assays:
Type in all cases: cell-based
Microsporum canis = test: Antifungal activity in vitro, resazurin growth inhibition: Microsporum canis (B68128)
How it was run: (§1)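 Resazurin conversion to fluorescent resorufin (ex 550/em 590 nm) served as the growth readout. Compounds spanned 2- or 4-fold serial dilutions with 64 μM top in-test concentration; inoculum 10^3 cfu per well in MOPS-buffered RPMI-1640 (pH 7.0, 2% glucose). Incubation species-dependent, dermatophytes at 27° C. for ≥1 week.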

Trichophyton rubrum = test: Antifungal activity in vitro, resazurin growth inhibition: Trichophyton rubrum (B68183)
How it was run: as §1

Rhizomucor miehei = test: Antifungal activity in vitro, resazurin growth inhibition: Rhizomucor miehei (IHEM13391)
How it was run: as §1

Aspergillus fumigatus = test: Antifungal activity in vitro, resazurin growth inhibition: Aspergillus fumigatus (B42928)
How it was run: as §1

Cryptococcus neoformans = test: Antifungal activity in vitro, resazurin growth inhibition: Cryptococcus neoformans (B66663)
How it was run: as §1

Scedosporium prolificans = test: Antifungal activity in vitro, resazurin growth inhibition: Scedosporium prolificans (IHEM21157)
How it was run: as §1

Scedosporium apiospermum = test: Antifungal activity in vitro, resazurin growth inhibition: Scedosporium apiospermum (IHEM3817)
How it was run: as §1

Rhizopus oryzae = test: Antifungal activity in vitro, resazurin growth inhibition: Rhizopus oryzae (IHEM5223)
How it was run: as §1

Sporothrix schenkii = test: Antifungal activity in vitro, resazurin growth inhibition: Sporothrix schenkii (B62482)
How it was run: as §1

[1] = system: Trichophyton mentagrophytes; test: Antifungal activity in vitro, resazurin growth inhibition: Trichophyton mentagrophytes (B70554)
How it was run: as §1

Candida parapsilosis = test: Antifungal activity in vitro, resazurin growth inhibition: Candida parapsilosis (B66126)
How it was run: as §1

Compound | Inf. B: Microsporum canis B68128, pIC50 (Microsporum canis) | Inf. C: Trichophyton rubrum B68183, pIC50 (Trichophyton rubrum) | Inf. K: Rhizomucor miehei IHEM13391, pIC50 (Rhizomucor miehei) | Inf. E: Aspergillus fumigatus B42928, pIC50 (Aspergillus fumigatus) | Inf. F: Cryptococcus neoformans B66663, pIC50 (Cryptococcus neoformans) | Inf. I: Scedosporium prolificans IHEM21157, pIC50 (Scedosporium prolificans) | Inf. H: Scedosporium apiospermum IHEM3817, pIC50 (Scedosporium apiospermum) | Inf. J: Rhizopus oryzae IHEM5223, pIC50 (Rhizopus oryzae) | Inf. A: Sporothrix schenkii B62482, pIC50 (Sporothrix schenkii) | Inf. G: Trichophyton mentagrophytes B70554, pIC50 [1] | Inf. D: Candida parapsilosis B66126, pIC50 (Candida parapsilosis)
Cc1cccc2c1CN=C(c1ccc(C(F)(F)F)nc1)c1cccn1-2 [Compound 88] | 6.63 | 7.10 | <4.19 | <4.19 | <4.19 | 6.14 | 5.28 | <4.19 | 4.85 | 5.80 | <4.19
CC(=O)c1ccc(C2=NCc3c(Cl)cccc3-n3cccc32)cn1 [Compound 92] | <4.19 | 6.09 | <4.19 | <4.19 | <4.19 | <4.19 | <4.19 | <4.19 | <4.19 | <4.19 | <4.19
Cl.Clc1cccc2c1CNC(c1cc3ccccc3o1)c1cccn1-2 (racemic) [Compound 30] | 6.27 | 6.29 | <4.19 | 6.32 | <4.19 | <4.19 | 4.94 | <4.19 | 4.89 | 6.15 | 5.22
FC(F)(F)c1ccc(C2=NCc3c(Cl)cccc3-n3cccc32)cn1 [Compound 89] | 6.14 | 6.75 | <4.19 | 5.70 | <4.19 | 6.28 | <4.19 | <4.19 | <4.19 | 6.23 | 6.17
CC(F)(F)c1ccc(C2=NCc3c(Cl)cccc3-n3cccc32)cn1 [Compound 82] | 6.37 | 6.85 | <4.19 | 6.28 | <4.19 | 6.24 | 6.01 | <4.19 | <4.19 | 6.24 | 5.285
COc1cccc2cc(C3=NCc4c(C)cccc4-n4cccc43)oc12 [Compound 144] | 6.49 | >8.41 | 4.44 | 5.62 | 5.31 | 6.26 | 4.71 | <4.19 | 5.69 | 7.45 | 4.57
Cc1ccc2cc(C3=NCc4c(Cl)cccc4-n4cccc43)oc2c1 [Compound 138] | 6.99 | 6.83 | <4.19 | <4.19 | <4.19 | 6.32 | 5.78 | <4.19 | <4.19 | 6.83 | <4.19
